One may read the IC50 as the concentration that inhibits the measured activity by half.

In patent US20090143361A1, “Pyrido[3,2-E]Pyrazines, Process For Preparing The Same, And Their Use As Inhibitors Of Phosphodiesterase 10” (ELBION GMBH, priority 2007, published 2009) one finds IC50 data, which are given here for 33 molecules.

Each structure is given as a SMILES string.

For this test, the target named is PDE10 from pig striatum (Sus scrofa, UniProt A0A287B941). Briefly: Inhibition of PDE10 from pig striatum ([3H]-cAMP SPA). The settings on record: Table 8; read-out: PDE10 pig IC50. It counts as biochemical. As for the experimental part: Phosphodiesterase isoenzyme 10 (PDE10) activity was determined in preparations of human recombinant PDE10A and PDE10 from pig striatum, respectively.
Striatum from male hybrid pigs (150 kg) were collected and frozen at −70° C.
At the day of preparation 0.5 g striatum was homogenised in 10 ml 50 mM Tris/Mg-buffer at 4° C. and centrifuged for one hour at 100000 g. The supernatant was removed and the pellet was resuspended in the same buffer, but containing 1% Triton and incubated for 45 min at 4° C. The membrane fraction was applied onto a 5 ml Hi Trap™ QHP column at the Akta-FPLC. After washing the column the bound PDE protein was eluted with an increasing sodium chloride gradient (O mM-500 mM sodium chloride) in 50 mM Tris/Mg-buffer at 4° C. in the presence of 1% Triton. […] The fractions with PDE10-activity were pooled and frozen in aliquots until use at −20° C.
PDE10 activity was determined in a one step procedure in microtiterplates. […] Nonspecific activity was tested without the enzyme. The reaction was initiated by addition of the substrate solution and was carried out at 37° C. for 30 minutes. Enzymatic activity was stopped by addition of 25 μl YSi-SPA-beads (Amersham-Pharmacia). One hour later the mixture was measured in a liquid scintillation counter for microtiterplates (Microbeta Trilux). To pipette the incubation mixture a robot Biomek (Fa. Beckman) is used. […] For determination of IC50 values the Hill-plot, 2-parameter-model, was used.
The phosphodiesterase isoenzyme 10 (PDE10) activity was determined in preparations of rat, pig and guinea pig striatum respectively. Striatum from male Wistar rats (180-200 g), male hybrid pigs (150 kg) and male guinea pigs (CRL (HA), 500 g) respectively were collected and frozen at −70° C.
At the day of preparation 0.5 g striatum was homogenized in 10 ml 50 mM Tris/Mg-buffer at 4° C. and centrifuged for one hour at 100000 g. The supernatant is called the cytosolic fraction and was removed and stored on ice. The pellet was resuspended in the same buffer, but containing 1% Triton and incubated for 45 min at 4° C. Both fractions were independently applied onto a 5 ml Hi Trap™ QHP column at the Akta-FPLC. After washing the columns the bound PDE protein was eluted with an increasing sodium chloride gradient (0 mM-500 mM sodium chloride) in 50 mM Tris/Mg-buffer at 4° C. for the cytosolic fraction and in the presence of 1% Triton for the membrane fraction. […] The fractions with PDE10-activity were pooled and frozen in aliquots until use at −20° C.
PDE10 activity was determined in a one step procedure in microtiterplates. […] Nonspecific activity was tested without the enzyme. The reaction was initiated by addition of the substrate solution and was carried out at 37° C. for 30 minutes. Enzymatic activity was stopped by addition of 25 μl YSi-SPA beads (Amersham-Pharmacia). One hour later the mixture was measured in a liquid scintillation counter for microtiterplates (Microbeta Trilux). To pipette the incubation mixture a robot Biomek (Fa. Beckman) is used. […] For determination of IC50 values the Hill-plot, 2-parameter-model, was used.

Consider `COc1ccc2nc(C)c3c(C)nc(-c4ccc(C)cc4)n3c2n1` [Example 59, 2-Methoxy-6,7-dimethyl-9-(4-methylphenyl)imidazo[1,5-a]pyrido[3,2-e]pyrazine], for which the IC50 was 10 to 100 nM.

On to `COc1ccc2nc(C)c3c(C)nc(-c4ccco4)n3c2n1` [Example 60, 9-(2-Furyl)-2-methoxy-6,7-dimethylimidazo[1,5-a]pyrido[3,2-e]pyrazine], for which the IC50 fell in the range of 10 to 100 nM.

Take `COc1cccc(-c2nc(C)c3c(C)nc4ccc(OC)nc4n23)c1` [Example 62, 2-Methoxy-9-(3-methoxyphenyl)-6,7-dimethylimidazo[1,5-a]pyrido[3,2-e]pyrazine]: the IC50 was below 10 nM.

Regarding `COc1ccc2nc(C)c3c(C)nc(-c4cccc(OC(F)(F)F)c4)n3c2n1` [Example 63, 2-Methoxy-6,7-dimethyl-9-[3-(trifluoromethoxy)phenyl]imidazo[1,5-a]pyrido[3,2-e]pyrazine], the IC50 lay within 10 to 100 nM.

In the case of `COc1ccc2nc(C)c3c(C)nc(-c4ccc(OC(F)(F)F)cc4)n3c2n1` [Example 64, 2-Methoxy-6,7-dimethyl-9-[4-(trifluoromethoxy)phenyl]imidazo[1,5-a]pyrido[3,2-e]pyrazine], the IC50 was in the range of 10 to 100 nM.

As for `COc1ccc2nc(C)c3c(C)nc(-c4cccc(C)c4)n3c2n1` [Example 65, 2-Methoxy-6,7-dimethyl-9-(3-methylphenyl)imidazo[1,5-a]pyrido[3,2-e]pyrazine], the half-maximal inhibitory concentration (IC50) is below 10 nM.

Regarding `COc1ccc2nc(C)c3c(C)nc(-c4cccc(C(F)(F)F)c4)n3c2n1` [Example 66, 2-Methoxy-6,7-dimethyl-9-[3-(trifluoromethyl)phenyl]imidazo[1,5-a]pyrido[3,2-e]pyrazine], the IC50 lay within 10 to 100 nM.

For `COc1ccc2nc(C)c3c(C)nc(-c4ccc(C(F)(F)F)cc4)n3c2n1` [Example 67, 2-Methoxy-6,7-dimethyl-9-[4-(trifluoromethyl)phenyl]imidazo[1,5-a]pyrido[3,2-e]pyrazine], the IC50 is 10 to 100 nM.

Regarding `COc1ccc2nc(C)c3c(C)nc(-c4cccs4)n3c2n1` [Example 68, 2-Methoxy-6,7-dimethyl-9-(2-thienyl)imidazo[1,5-a]pyrido[3,2-e]pyrazine], the IC50 lay in the range of 10 to 100 nM.

Consider `COc1ccc2nc(C)c3c(C)nc(-c4cscc4C)n3c2n1` [Example 69, 2-Methoxy-6,7-dimethyl-9-(4-methyl-3-thienyl)imidazo[1,5-a]pyrido[3,2-e]pyrazine], for which the IC50 was below 10 nM.

`COc1ccc2nc(C)c3c(C)nc(-c4ccccc4-c4ccccc4)n3c2n1` [Example 70, 9-Biphenyl-2-yl-2-methoxy-6,7-dimethylimidazo[1,5-a]pyrido[3,2-e]pyrazine]: the IC50 is 10 to 100 nM.

For the molecule `COc1ccc2nc(C)c3c(C)nc(-c4cccc(-c5ccccc5)c4)n3c2n1` [Example 71, 9-Biphenyl-3-yl-2-methoxy-6,7-dimethylimidazo[1,5-a]pyrido[3,2-e]pyrazine], the IC50 lay within 10 to 100 nM.

On to `COc1ccc2nc(C)c3c(C)nc(-c4ccc(-c5ccccc5)cc4)n3c2n1` [Example 72, 9-Biphenyl-4-yl-2-methoxy-6,7-dimethylimidazo[1,5-a]pyrido[3,2-e]pyrazine], for which the concentration for half-maximal inhibition (IC50) was above 100 nM.

Consider `COc1ccc2nc(C)c3c(C)nc(-c4cccc(C#N)c4)n3c2n1` [Example 73, 3-(2-Methoxy-6,7-dimethylimidazo[1,5-a]pyrido[3,2-e]pyrazin-9-yl)benzonitrile], for which the IC50 lay within 10 to 100 nM.

Consider `COc1ccc2nc(C)c3c(C)nc(-c4ccc(C#N)cc4)n3c2n1` [Example 74, 4-(2-Methoxy-6,7-dimethylimidazo[1,5-a]pyrido[3,2-e]pyrazin-9-yl)benzonitrile], for which the IC50 lay in the range of 10 to 100 nM.

Take `COc1ccc2nc(C)c3c(C)nc(C#Cc4ccccc4)n3c2n1` [Example 75, 2-Methoxy-6,7-dimethyl-9-(phenylethynyl)imidazo[1,5-a]pyrido[3,2-e]pyrazine]: the IC50 is 10 to 100 nM.

`COc1ccc2nc(C)c3c(C)nc(C#Cc4ccc(F)cc4)n3c2n1` [Example 76, 9-[(4-Fluorophenyl)ethynyl]-2-methoxy-6,7-dimethylimidazo[1,5-a]pyrido[3,2-e]pyrazine]: the IC50 was above 100 nM.

For `COc1ccc(C#Cc2nc(C)c3c(C)nc4ccc(OC)nc4n23)cc1` [Example 77, 2-Methoxy-9-[(4-methoxyphenyl)ethynyl]-6,7-dimethylimidazo[1,5-a]pyrido[3,2-e]pyrazine], the IC50 fell in the range of 10 to 100 nM.

For `COc1ccc2nc(C)c3c(C)nc(-c4cc(C)ccc4Cl)n3c2n1` [Example 78, 9-(2-Chloro-5-methylphenyl)-2-methoxy-6,7-dimethylimidazo[1,5-a]pyrido[3,2-e]pyrazine], the IC50 is below 10 nM.

On to `COc1ccc2nc(C)c3c(C)nc(-c4cc(Cl)ccc4C)n3c2n1` [Example 79, 9-(5-Chloro-2-methylphenyl)-2-methoxy-6,7-dimethylimidazo[1,5-a]pyrido[3,2-e]pyrazine], for which the IC50 is below 10 nM.

Regarding `COc1ccc2nc(C)c3c(C)nc(-c4ccc(Cl)cc4C)n3c2n1` [Example 80, 9-(4-Chloro-2-methylphenyl)-2-methoxy-6,7-dimethylimidazo[1,5-a]pyrido[3,2-e]pyrazine], the IC50 was below 10 nM.

For `COc1ccc2nc(C)c3c(C)nc(-c4cc(F)ccc4C)n3c2n1` [Example 81, 9-(5-Fluoro-2-methylphenyl)-2-methoxy-6,7-dimethylmidazo[1,5-a]pyrido[3,2-e]pyrazine], the IC50 was below 10 nM.

Consider `COc1ccc2nc(C)c3c(C)nc(-c4ccc(F)cc4C)n3c2n1` [Example 82, 9-(4-Fluoro-2-methylphenyl)-2-methoxy-6,7-dimethylmidazo[1,5-a]pyrido[3,2-e]pyrazine], for which the IC50 was below 10 nM.

Consider `COc1ccc2nc(C)c3c(C)nc(-c4cc(F)ccc4OC)n3c2n1` [Example 83, 9-(5-Fluoro-2-methoxyphenyl)-2-methoxy-6,7-dimethylimidazo[1,5-a]pyrido[3,2-e]pyrazine], for which the 50% inhibitory concentration (IC50) is 10 to 100 nM.

Consider `COc1ccc2nc(C)c3c(C)nc(-c4cc(Cl)ccc4OC)n3c2n1` [Example 84, 9-(5-Chloro-2-methoxyphenyl)-2-methoxy-6,7-dimethylimidazo[1,5-a]pyrido[3,2-e]pyrazine], for which the IC50 was 10 to 100 nM.

Turning to `COc1ccc2nc(C)c3c(C)nc(-c4ccc(C(N)=O)cc4)n3c2n1` [Example 85, 4-(2-Methoxy-6,7-dimethylimidazo[1,5-a]pyrido[3,2-e]pyrazin-9-yl)benzamide], the IC50 was below 10 nM.

For the molecule `COc1ccc2nc(C)c3c(C)nc(-c4ccc(F)cc4OC)n3c2n1` [Example 86, 9-(4-Fluoro-2-methoxyphenyl)-2-methoxy-6,7-dimethylmidazo[1,5-a]pyrido[3,2-e]pyrazine], the IC50 is 10 to 100 nM.

`COc1ccc2nc(C)c3c(C)nc(-c4cccc(Cl)c4C)n3c2n1` [Example 87, 9-(3-Chloro-2-methylphenyl)-2-methoxy-6,7-dimethylimidazo[1,5-a]pyrido[3,2-e]pyrazine]: the half-maximal inhibitory concentration (IC50) was below 10 nM.

For `COc1ccc2nc(C)c3c(C)nc(-c4cccc(F)c4C)n3c2n1` [Example 88, 9-(3-Fluoro-2-methylphenyl)-2-methoxy-6,7-dimethylmidazo[1,5-a]pyrido[3,2-e]pyrazine], the IC50 was below 10 nM.

For the molecule `COc1ccc2nc(C)c3c(C)nc(-c4cccc(Cl)c4Cl)n3c2n1` [Example 89, 9-(2,3-dichlorophenyl)-2-methoxy-6,7-dimethylimidazo[1,5-a]pyrido[3,2-e]pyrazine], the concentration for half-maximal inhibition (IC50) is below 10 nM.

As for `COc1ccc2nc(C)c3c(C)nc(-c4ccc(Cl)cc4OC)n3c2n1` [Example 90, 9-(4-Chloro-2-methoxyphenyl)-2-methoxy-6,7-dimethylimidazo[1,5-a]pyrido[3,2-e]pyrazine], the half-maximal inhibitory concentration (IC50) fell in the range of 10 to 100 nM.

With `COc1ccc2nc(C)c3c(C)nc(-c4ccc(Cl)cc4C(F)(F)F)n3c2n1` [Example 91, 9-[4-Chloro-2-(trifluoromethyl)phenyl]-2-methoxy-6,7-dimethylimidazo[1,5-a]pyrido[3,2-e]pyrazine], the IC50 was below 10 nM.

As to `COc1ccc2nc(C)c3c(C)nc(-c4ccc(Cl)s4)n3c2n1` [Example 92, 9-(5-Chloro-2-thienyl)-2-methoxy-6,7-dimethylimidazo[1,5-a]pyrido[3,2-e]pyrazine], the IC50 was in the range of 10 to 100 nM.
